Reference: US20220370390A1, “LIQUID ORAL FORMULATION OF BUMETANIDE” (NEUROCHLORE, priority 2019, published 2022)
Values after ≈ are worked out from the molar mass of the structure shown. Like-named read-outs stand apart in the source and are kept apart here.

How the values were obtained:
[1] = cited from earlier work
[2] = test system: ASD core symptoms; test: Phase 2 clinical trial of oral bumetanide formulation; type: in vivo, children and adolescents; conditions: oral liquid formulation twice a day, paediatric population
Experimental: A phase 2 clinical trial that was run with various doses of the following oral formulation of bumetanide according to the invention: • Active ingredient: bumetanide at 0.5 mg/ml 1.0 mg/ml 2.0 mg/ml and placebo • Antimicrobial preservative: sodium methylparaben and sodium propylparaben • Buffering agents: NaH2PO4.2H2O and NaH2PO4 • Sweetening agents: Acesulfame potassium and sorbitol • Solvent: water The pH is 6.5. The liquid oral formulation is stored in an amber glass bottle with polypropylene/low density polyethylene child-resistant and tamper-evident cap. A 1 ml dosing pipette, consisting of a polystyrene plunger and a low-density polyethylene barrel and piston was used to administer directly the solution into the mouth. The posology was an oral administration of the liquid formulation twice a day for a paediatric population.

Compound: CCCCNc1cc(C(=O)O)cc(S(N)(=O)=O)c1Oc1ccccc1 [Bumetanide, 3-(Butylamino)-4-phenoxy-5-sulfamoylbenzoic acid]
- solubility ([1]; in aqueous buffers): sparingly soluble
- solubility ([1]; in dimethyl formamide (DMF)): 33 mg/mL (≈ 90.6 mM)
- solubility ([1]; in ethanol): 14 mg/mL (≈ 38.4 mM)
- severity of ASD core symptoms [2]: can reduce the severity of ASD core symptoms
